In test [1] the target is Ras and Rab interactor 1/Tyrosine-protein kinase ABL1 (Homo sapiens, UniProt P00519+Q13671). Format: functional.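 Note: biochemical TR-FRET dose-response test measuring inhibition of binding between Rin1 and Abl proteins.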
The target of test [2] is Photoreceptor-specific nuclear receptor (Homo sapiens, UniProt Q9Y5X4). Format: functional, cell-based.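 Note: CHO-S cells with Gal4-NCOR and VP16-NR2E3 two-hybrid luciferase reporter.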
Test [3] has as its target T1, Probable nicotinate-nucleotide adenylyltransferase (Staphylococcus aureus (strain N315), UniProt P65502). Format: functional, Staphylococcus aureus subsp. aureus N315. Particulars: read-out: IC50_Mean.
A short description of test [4]: viability loss in THP-1 monocytes – THP-1 cells, cytotoxicity control for Vif-APOBEC3G degradation inhibitor project, dose response (AID 1117359). In kind it is functional. The conditions noted are these: THP-1.
Test [5] deals with T1, Probable nicotinate-nucleotide adenylyltransferase. In kind it is functional, Staphylococcus aureus subsp. aureus N315.
Test [6] addresses T2, Small ubiquitin-related modifier 1 (Homo sapiens, UniProt P63165). Kind of test: SUMO1 protein interaction blockers, potency – biochemical, fluorescence polarization, uHTS hits, dose response (AID 624382). In kind it is functional. Particulars: read-out: IC50_Mean.
The nature of test [7]: Luminescence Cell-Based Dose Retest to Confirm Inhibitors of Cancer Stem Cells. [Related pubchem assays (depositor defined):AID2717, AID2721]. Format: functional. The conditions noted are these: Homo sapiens.
In test [8] the target is T2, Small ubiquitin-related modifier 1. Kind of test: SUMO1 protein-protein binding blockers, potency – biochemical, FRET, dose response (AID 624383). Particulars: read-out: IC50_Mean. In kind it is functional.
The target in test [9] is T3, Low molecular weight phosphotyrosine protein phosphatase (Homo sapiens, UniProt P24666).
T3 sequence (P24666 whole entry): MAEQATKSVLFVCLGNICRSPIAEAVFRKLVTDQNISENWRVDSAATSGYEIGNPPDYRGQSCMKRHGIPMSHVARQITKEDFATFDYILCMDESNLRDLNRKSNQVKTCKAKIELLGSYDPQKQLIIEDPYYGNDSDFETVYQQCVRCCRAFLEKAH
In kind it is functional. The conditions noted are these: read-out: IC50_Mean.

Test [10] concerns the target T4, Adenosylmethionine-8-amino-7-oxononanoate aminotransferase (Mycobacterium tuberculosis, UniProt P9WQ81).
T4 sequence (P9WQ81 whole entry): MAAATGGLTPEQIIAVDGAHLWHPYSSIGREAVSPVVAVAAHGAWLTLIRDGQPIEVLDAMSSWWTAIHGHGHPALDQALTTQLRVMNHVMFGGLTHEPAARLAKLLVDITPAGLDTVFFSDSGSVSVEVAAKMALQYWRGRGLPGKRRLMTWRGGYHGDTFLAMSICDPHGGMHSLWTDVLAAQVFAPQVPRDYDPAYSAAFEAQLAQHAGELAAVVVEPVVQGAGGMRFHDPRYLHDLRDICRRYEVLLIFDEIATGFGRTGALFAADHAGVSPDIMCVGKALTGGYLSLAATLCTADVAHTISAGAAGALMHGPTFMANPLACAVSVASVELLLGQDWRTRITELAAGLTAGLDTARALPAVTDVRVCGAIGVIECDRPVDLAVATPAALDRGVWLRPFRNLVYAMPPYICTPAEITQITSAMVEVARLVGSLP
Kind of test: Mycobacterium tuberculosis BioA enzyme inhibitor Measured in Biochemical System Using Plate Reader - 2163-02_Inhibitor_Dose_CherryPick_Activity. In kind it is functional, Mycobacterium tuberculosis UT205.

The next test has as its system Vero. Kind of test: viability of Vero cells under compound – cytotoxicity control for flavivirus capping enzyme inhibitors (AID 588742). Format: functional. Particulars: Chlorocebus sabaeus.
In another test the target is Genome polyprotein (dengue virus type 2, UniProt P29990). Kind of test: flavivirus cap methylation enzyme inhibition – biochemical, confirmation dose response, primary screen (AID 588689). In kind it is functional.
Chain of Genome polyprotein (P29990 2492-3391 limits assumed): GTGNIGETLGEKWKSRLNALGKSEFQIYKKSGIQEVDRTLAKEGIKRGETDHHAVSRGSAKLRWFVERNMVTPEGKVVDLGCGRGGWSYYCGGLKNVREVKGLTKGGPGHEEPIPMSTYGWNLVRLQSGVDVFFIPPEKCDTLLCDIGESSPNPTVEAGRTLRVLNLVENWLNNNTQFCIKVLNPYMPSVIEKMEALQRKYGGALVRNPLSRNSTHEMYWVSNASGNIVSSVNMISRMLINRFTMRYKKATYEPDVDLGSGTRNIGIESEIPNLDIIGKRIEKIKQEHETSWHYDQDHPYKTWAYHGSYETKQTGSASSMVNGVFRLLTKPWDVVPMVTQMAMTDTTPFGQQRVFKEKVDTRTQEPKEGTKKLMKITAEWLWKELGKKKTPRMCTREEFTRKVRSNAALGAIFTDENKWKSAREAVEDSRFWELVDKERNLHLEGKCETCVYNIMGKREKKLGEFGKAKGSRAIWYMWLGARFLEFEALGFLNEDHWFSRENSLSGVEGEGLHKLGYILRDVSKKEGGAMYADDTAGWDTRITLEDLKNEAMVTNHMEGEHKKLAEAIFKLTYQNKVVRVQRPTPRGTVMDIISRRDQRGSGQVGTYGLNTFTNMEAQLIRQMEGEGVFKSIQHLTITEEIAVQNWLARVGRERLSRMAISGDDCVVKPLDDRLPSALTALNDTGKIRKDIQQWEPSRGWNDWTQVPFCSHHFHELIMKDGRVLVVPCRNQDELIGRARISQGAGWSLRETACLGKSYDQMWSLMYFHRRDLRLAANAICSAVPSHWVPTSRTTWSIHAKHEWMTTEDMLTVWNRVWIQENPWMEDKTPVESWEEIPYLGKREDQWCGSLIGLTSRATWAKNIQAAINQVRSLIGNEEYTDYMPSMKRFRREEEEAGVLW
Test [11] has as its target T5, Replicative DNA helicase DnaB (Mycobacterium tuberculosis, UniProt P9WMR3).
T5 sequence (P9WMR3 whole entry): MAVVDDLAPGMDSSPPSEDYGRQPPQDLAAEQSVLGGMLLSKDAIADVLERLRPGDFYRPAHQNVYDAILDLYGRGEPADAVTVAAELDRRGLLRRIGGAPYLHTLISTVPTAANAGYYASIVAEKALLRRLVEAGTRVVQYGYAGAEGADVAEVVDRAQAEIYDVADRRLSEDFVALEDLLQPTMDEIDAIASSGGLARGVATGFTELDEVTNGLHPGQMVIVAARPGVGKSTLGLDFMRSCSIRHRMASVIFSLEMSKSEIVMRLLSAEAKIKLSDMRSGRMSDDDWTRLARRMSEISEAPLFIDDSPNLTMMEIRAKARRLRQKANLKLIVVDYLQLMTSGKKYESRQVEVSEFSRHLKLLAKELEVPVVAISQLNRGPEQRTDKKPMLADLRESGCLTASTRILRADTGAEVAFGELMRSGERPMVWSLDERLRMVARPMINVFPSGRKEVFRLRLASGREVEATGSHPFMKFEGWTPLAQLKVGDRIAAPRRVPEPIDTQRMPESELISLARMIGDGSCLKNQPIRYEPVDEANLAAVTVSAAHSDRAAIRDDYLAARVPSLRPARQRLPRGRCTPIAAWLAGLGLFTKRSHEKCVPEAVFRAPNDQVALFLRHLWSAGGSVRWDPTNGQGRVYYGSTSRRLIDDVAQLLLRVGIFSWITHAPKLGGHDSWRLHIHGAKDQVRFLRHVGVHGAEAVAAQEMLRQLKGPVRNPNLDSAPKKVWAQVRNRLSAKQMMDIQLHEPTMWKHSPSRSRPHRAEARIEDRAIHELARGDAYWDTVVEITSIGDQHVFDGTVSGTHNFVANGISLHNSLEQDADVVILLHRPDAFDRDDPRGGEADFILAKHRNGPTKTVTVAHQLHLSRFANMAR
Kind of test: DnaB intein splicing inhibitors, dose response, biochemical, cell-free fluorescence (AID 449749). Format: functional.

The target of a further test is T6, Protein RecA (Mycobacterium tuberculosis, UniProt P9WHJ3).
T6 sequence (P9WHJ3 whole entry): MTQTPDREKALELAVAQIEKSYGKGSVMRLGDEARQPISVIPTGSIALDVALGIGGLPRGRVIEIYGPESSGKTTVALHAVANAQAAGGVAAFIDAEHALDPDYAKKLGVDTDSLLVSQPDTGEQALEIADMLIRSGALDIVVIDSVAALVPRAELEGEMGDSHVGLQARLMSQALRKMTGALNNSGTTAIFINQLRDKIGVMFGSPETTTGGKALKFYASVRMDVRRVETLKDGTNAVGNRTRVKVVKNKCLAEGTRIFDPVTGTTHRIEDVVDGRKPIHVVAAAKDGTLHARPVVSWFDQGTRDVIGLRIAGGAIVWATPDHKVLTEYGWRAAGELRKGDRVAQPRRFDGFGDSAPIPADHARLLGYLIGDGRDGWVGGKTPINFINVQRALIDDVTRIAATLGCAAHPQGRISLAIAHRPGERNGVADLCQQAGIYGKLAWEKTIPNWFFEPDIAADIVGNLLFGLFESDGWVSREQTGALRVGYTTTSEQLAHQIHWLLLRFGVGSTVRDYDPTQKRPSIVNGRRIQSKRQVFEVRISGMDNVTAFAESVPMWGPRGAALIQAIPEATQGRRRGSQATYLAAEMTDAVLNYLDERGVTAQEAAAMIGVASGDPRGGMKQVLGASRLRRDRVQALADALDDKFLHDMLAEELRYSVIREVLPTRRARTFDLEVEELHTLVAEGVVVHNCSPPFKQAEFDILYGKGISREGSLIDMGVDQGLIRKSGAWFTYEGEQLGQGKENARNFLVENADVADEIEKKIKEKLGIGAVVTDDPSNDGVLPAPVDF
Kind of test: Fluorescence Cell-Free Homogeneous Dose Retest to Identify Inhibitors of RecA-Intein Splicing Activity. [Related pubchem assays (depositor defined):AID2097, AID2223, AID489010, AID492950]. Format: functional.

Test [12] in a line: NIH3T3 cell viability loss – ATP luminescence, mouse fibroblasts, counter-screen, dose response (AID 2010).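 Note: cells exposed to compound for about 90 hours before reading.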 Format: functional, cell-based.
Test [13] is described as follows: Trypanosoma cruzi growth suppression in host cells – NIH3T3 host cells, beta-gal luminescence, confirmation (AID 2044).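 Note: intracellular parasites grown in NIH/3T3 mouse fibroblasts as host cells; luminescent beta-galactosidase reporter signal from transgenic T. cruzi replicating inside host cells; inhibitors lower the luminescence signal.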 Format: functional, cell-based.
Test [14] in a line: THP-1 cell cytotoxicity, dose response, cytotoxicity control for non-replicating M. tuberculosis project (AID 489025). Format: functional.
Test [15] in a line: HepG2 cell cytotoxicity, dose response, cytotoxicity control for non-replicating M. tuberculosis project (AID 489018). Particulars: Mycobacterium tuberculosis. Format: functional.
The nature of test [16]: viability loss in HeLa cells – cytotoxicity control for MgcRacGAP inhibitor project, dose response (AID 624300). Format: functional.
Test [17] in a line: Vero E6 cell cytotoxicity, dose response, cytotoxicity control for non-replicating M. tuberculosis project, secondary assay (AID 492998). In kind it is functional, VeroE6. Particulars: Vero C1008.

Calls of active or inactive are those of the source.

T2 sequence (P63165 whole entry): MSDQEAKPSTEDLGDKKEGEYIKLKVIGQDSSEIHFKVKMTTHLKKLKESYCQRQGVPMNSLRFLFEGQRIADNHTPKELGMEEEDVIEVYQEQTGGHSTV
T1 sequence (P65502 whole entry): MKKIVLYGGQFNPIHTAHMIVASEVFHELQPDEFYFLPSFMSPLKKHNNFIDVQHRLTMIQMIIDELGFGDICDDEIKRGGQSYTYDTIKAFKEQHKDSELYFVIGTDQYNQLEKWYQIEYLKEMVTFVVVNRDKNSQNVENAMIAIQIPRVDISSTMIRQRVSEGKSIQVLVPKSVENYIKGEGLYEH
Chain of Ras and Rab interactor 1/Tyrosine-protein kinase ABL1 (P00519 whole entry, the tested form may be a part): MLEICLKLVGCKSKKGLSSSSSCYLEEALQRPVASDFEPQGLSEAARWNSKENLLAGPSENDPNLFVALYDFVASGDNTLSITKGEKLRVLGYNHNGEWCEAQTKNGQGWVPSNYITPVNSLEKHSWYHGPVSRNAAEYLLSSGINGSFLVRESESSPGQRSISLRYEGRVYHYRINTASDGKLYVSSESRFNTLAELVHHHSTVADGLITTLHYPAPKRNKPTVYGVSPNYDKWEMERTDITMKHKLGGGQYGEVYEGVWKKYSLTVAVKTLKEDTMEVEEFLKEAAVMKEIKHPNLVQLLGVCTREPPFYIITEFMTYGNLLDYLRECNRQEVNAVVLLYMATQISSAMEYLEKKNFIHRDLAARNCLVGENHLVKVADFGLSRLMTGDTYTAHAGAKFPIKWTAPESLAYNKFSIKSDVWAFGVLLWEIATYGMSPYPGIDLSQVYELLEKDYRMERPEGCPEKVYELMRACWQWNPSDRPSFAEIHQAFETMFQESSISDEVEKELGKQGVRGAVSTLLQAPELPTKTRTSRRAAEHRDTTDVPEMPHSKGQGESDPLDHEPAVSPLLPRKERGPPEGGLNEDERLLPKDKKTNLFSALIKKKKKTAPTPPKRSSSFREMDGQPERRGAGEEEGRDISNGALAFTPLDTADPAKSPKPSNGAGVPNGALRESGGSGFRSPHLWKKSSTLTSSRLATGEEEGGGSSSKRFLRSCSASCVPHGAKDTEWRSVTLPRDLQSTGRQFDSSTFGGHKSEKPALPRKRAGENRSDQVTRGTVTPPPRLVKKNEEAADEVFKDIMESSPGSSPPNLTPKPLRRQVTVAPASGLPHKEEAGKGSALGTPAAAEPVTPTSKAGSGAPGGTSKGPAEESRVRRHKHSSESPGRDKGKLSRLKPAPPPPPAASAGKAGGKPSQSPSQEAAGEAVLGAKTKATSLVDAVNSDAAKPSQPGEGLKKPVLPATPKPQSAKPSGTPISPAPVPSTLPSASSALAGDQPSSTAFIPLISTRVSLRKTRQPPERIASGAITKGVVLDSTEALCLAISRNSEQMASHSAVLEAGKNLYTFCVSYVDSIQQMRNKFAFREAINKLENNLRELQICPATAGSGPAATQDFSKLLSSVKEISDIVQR
Chain of Ras and Rab interactor 1/Tyrosine-protein kinase ABL1 (Q13671 whole entry, the tested form may be a part): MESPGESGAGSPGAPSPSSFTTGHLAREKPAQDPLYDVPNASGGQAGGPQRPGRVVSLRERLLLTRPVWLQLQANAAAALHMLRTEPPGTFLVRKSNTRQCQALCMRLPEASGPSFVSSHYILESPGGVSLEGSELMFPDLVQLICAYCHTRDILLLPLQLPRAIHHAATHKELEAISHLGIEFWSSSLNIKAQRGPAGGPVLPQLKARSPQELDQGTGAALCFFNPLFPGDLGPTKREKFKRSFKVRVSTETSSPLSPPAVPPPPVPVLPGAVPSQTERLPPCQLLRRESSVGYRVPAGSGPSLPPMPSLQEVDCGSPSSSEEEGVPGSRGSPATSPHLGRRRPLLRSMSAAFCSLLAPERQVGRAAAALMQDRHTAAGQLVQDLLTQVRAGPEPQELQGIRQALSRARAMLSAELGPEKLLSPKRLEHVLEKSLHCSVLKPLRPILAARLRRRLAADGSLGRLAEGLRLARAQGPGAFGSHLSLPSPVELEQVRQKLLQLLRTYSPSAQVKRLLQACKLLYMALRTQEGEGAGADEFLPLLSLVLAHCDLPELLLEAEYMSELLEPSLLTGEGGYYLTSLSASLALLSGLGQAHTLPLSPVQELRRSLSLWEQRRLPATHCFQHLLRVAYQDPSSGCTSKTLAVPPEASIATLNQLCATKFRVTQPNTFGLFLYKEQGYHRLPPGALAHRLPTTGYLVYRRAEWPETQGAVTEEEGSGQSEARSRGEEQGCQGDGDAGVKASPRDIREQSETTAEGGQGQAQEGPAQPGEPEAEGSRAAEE
Chain of Photoreceptor-specific nuclear receptor (Q9Y5X4 whole entry, the tested form may be a part): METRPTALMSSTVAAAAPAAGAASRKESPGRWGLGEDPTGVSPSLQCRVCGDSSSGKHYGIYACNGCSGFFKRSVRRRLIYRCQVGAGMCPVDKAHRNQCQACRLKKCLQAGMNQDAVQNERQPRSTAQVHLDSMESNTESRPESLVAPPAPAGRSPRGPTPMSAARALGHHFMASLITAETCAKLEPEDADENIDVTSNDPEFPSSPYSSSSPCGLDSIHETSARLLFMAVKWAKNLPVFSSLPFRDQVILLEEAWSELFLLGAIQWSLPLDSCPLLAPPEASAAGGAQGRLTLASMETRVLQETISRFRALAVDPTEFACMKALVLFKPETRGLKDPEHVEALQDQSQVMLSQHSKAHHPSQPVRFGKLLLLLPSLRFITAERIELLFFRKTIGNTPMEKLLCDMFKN

Consider `CCOC(=O)c1ccc(NC(=O)NC2CC3CCC(C2)N3)cc1` (stereo not drawn), for which the IC50 in test [1] is 31.7 µM (inactive).
As for `c1coc(CNc2ncnc3ccccc23)c1`, the IC50 in test [2] is 4.34 µM (active).
As for `O=C(NC(=S)Nc1cccc(S(=O)(=O)NC2=NCCC2)c1)c1cc(-c2ccco2)nc2ccccc12`, the IC50 in [3] was 35 µM (active); in test [5], 10.4 µM (active). The CC50 (commonly the concentration at which the toxic effect on the cells reaches its halfway point) in test [4] is > 40 µM (active).
With `Cc1ccc([N+](=O)[O-])cc1-c1ccc(/C=C(\C#N)c2[nH]nc(N)c2C#N)o1`, the IC50 was > 66.6 µM (inactive) in [6] and 1.74 µM (active) in [8]. In addition, the AC50 (usually the midpoint of the concentration-response curve, whichever way the signal moves) in [7] is 2.98 µM (active).
Take `Clc1ccc(Br)cc1-c1nc(-c2ccncc2)no1`: the IC50 in test [9] is 12.2 µM (active).
As to `CCCc1cc(=O)oc2c3c(cc(OCC(=O)NCCCn4ccnc4)c12)OC(C)(C)CC3`, the AC50 in test [10] is 5.93 µM (active).
With `CCOC(=O)c1c(NC(=O)/C=C/C(=O)O)sc(C)c1-c1ccc(C)c(C)c1`, the CC50 in the test on Vero was > 40 µM (active). Also, the IC50 at Genome polyprotein is 75.1 µM (active). Moreover, the AC50 in test [11] is 8.39 µM (active). Further, at Protein RecA, the EC50 (as a rule, the concentration that produces a half-maximal response) was 1.89 µM (active).
In the case of `O=C(Nc1ccc(S(=O)(=O)Nc2nccs2)cc1)c1cc(-c2ccccc2Cl)nc2ccccc12`, the IC50 in test [3] was 22.2 µM (active); in test [5], 6.99 µM (active).
For `O=C(Nc1cccc(NC(=O)c2ccc(-c3ccc(Br)cc3)o2)c1)c1ccco1`, the IC50 was > 66.6 µM (inactive) in test [6] and 6.92 µM (active) in test [8]. The EC50 is > 30 µM (not active) in [12] and 2.73 µM (active) in test [13].
In the case of `COc1cc(CNCCNC(=O)c2nonc2N)ccc1OCc1ccc(Cl)cc1`, the CC50 in test [14] was 24.3 µM (active); in test [15], > 20 µM (active); in [16] it was 75.4 µM (active); in [17], > 20 µM (active).
Regarding `Cc1cnc(NC(=O)C2CC(=O)N(c3ccc4c(c3)OCCO4)C2)s1` (stereo not drawn), in test [2], the IC50 is 7.49 µM (active).
In the case of `O=C(Nc1ccn([C@H]2CC[C@@H](CO)O2)c(=O)n1)c1ccccc1`, the IC50 in test [1] is 66.6 µM (inactive).
As to `O=C(c1cccc(F)c1)N1CC[C@@H]2[C@H](CO)Nc3ccc(-c4cccc(F)c4)cc3[C@@H]21`, the concentration at half-maximal activity (AC50) in [10] was 0.185 µM (active).
On the same count and under the same terms, the figure for `C[C@@H]1CN([C@H](C)CO)C(=O)Cc2cc(NC(=O)Cn3cnnn3)ccc2O[C@H]1CN(C)Cc1ccc2c(c1)OCO2` is 7.3 µM (active).

These data come from ChEMBL document CHEMBL1201862, “PubChem BioAssay data set” (2004).
